Laboratory results taken from patent publication US20250136596A1, “MEMBRANE-ASSOCIATED TYROSINE- AND THREONINE-SPECIFIC CDC2-INHIBITORY KINASE (PKMYT1) INHIBITORS AND USES THEREOF” (Insilico Medicine IP Limited, priority 2022, published 2025).

Target: PKMYT1 (Homo sapiens (Human), UniProt Q99640)
Test: PKMYT1 HTRF Assay
Assay type: binding
Details: Tracer 178, GST-Tb; compound 10 μM to 0.5 nM; read-out: MYT1 HTRF IC50
Procedure, shortened: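 Compound (final 10 μM to 0.5 nM) preincubated with PKMYT1 enzyme 15 min at 25° C, then Tracer 178 added for 60 min at 25° C. GST-Tb added, 15 min at 25° C, before HTRF readout.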

PKMYT1, sequence (Q99640 whole entry): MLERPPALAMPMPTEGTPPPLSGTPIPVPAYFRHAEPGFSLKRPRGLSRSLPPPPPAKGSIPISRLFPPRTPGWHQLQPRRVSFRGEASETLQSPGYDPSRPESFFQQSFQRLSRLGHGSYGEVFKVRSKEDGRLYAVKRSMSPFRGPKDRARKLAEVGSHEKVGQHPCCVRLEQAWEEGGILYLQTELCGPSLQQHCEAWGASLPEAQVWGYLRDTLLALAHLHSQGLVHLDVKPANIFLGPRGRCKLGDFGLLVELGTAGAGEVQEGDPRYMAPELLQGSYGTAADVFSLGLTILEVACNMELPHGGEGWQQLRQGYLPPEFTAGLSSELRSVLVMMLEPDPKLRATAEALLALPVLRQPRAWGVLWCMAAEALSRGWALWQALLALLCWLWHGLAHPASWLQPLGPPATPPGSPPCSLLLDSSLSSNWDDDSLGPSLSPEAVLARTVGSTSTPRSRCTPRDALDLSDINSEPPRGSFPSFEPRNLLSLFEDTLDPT

Q: Cc1ccc(O)c(C)c1-c1cnc2[nH]c(-c3cnc(N4C5CC[C@@H]4COC5)nc3)cc2c1C#N [Example 99, (5R)-2-(2-(3-oxa-8-azabicyclo[3.2.1]octan-8-yl)pyrimidin-5-yl)-5-(3-hydroxy-2,6-dimethylphenyl)-1H-pyrrolo[2,3-b]pyridine-4-carbonitrile] was tested. Which IC50 did it give?
A: < 10 nM

Q: With Cc1ccc(O)c(C)c1-c1cnc2[nH]c(-c3cnc(N4CC(O)C(F)C4)nc3)cc2c1C#N [Example 100, (R)-2-(2-((3S,4S)-3-fluoro-4-hydroxypyrrolidin-1-yl)pyrimidin-5-yl)-5-(3-hydroxy-2,6-dimethylphenyl)-1H-pyrrolo[2,3-b]pyridine-4-carbonitrile] as the molecule, how does the IC50 read?
A: < 10 nM

Q: Cc1ccc(O)c(C)c1-c1cnc2[nH]c(-c3cnc(NCCO)nc3)cc2c1C#N [Example 101, (R)-5-(3-hydroxy-2,6-dimethylphenyl)-2-(2-((2-hydroxyethyl)amino)pyrimidin-5-yl)-1H-pyrrolo[2,3-b]pyridine-4-carbonitrile] was tested. Which IC50 did it give?
A: < 10 nM

Q: For Cc1ccc(O)c(C)c1-c1cnc2[nH]c(-c3cnc(NC4CC(O)C4)nc3)cc2c1C#N [Example 102, (R)-5-(3-hydroxy-2,6-dimethylphenyl)-2-(2-((3-hydroxycyclobutyl)amino)pyrimidin-5-yl)-1H-pyrrolo[2,3-b]pyridine-4-carbonitrile], which IC50 is on record?
A: < 10 nM

Q: For CC#Cc1ncc(-c2cc3c(C#N)c(-c4c(C)ccc(O)c4C)cnc3[nH]2)cn1 [Example 104, (R)-5-(3-hydroxy-2,6-dimethylphenyl)-2-(2-(prop-1-yn-1-yl)pyrimidin-5-yl)-1H-pyrrolo[2,3-b]pyridine-4-carbonitrile], which IC50 is on record?
A: < 10 nM

Q: How did the IC50 turn out when Cc1ccc(O)c(C)c1-c1cnc2[nH]c(-c3cnc(C(N)=O)nc3)cc2c1C#N [Example 105, (R)-5-(4-cyano-5-(3-hydroxy-2,6-dimethylphenyl)-1H-pyrrolo[2,3-b]pyridin-2-yl)pyrimidine-2-carboxamide] was run?
A: < 10 nM

Q: How did the IC50 turn out when Cc1ccc(O)c(C)c1-c1cnc2[nH]c(-c3cnc(N)nc3)c(C)c2c1C#N [Example 106, (R)-2-(2-aminopyrimidin-5-yl)-5-(3-hydroxy-2,6-dimethylphenyl)-3-methyl-1H-pyrrolo[2,3-b]pyridine-4-carbonitrile] was run?
A: < 10 nM

Q: Cc1ncc(-c2[nH]c3ncc(-c4c(C)ccc(O)c4C)c(C#N)c3c2C2CC2)cn1 [Example 108, 3-cyclopropyl-5-(3-hydroxy-2,6-dimethylphenyl)-2-(2-methylpyrimidin-5-yl)-1H-pyrrolo[2,3-b]pyridine-4-carbonitrile] was tested. Which IC50 did it give?
A: 10 to 50 nM

Q: C#Cc1c(-c2cnc(C)nc2)[nH]c2ncc(-c3c(C)ccc(O)c3C)c(C#N)c12 [Example 109, (S)-3-ethynyl-5-(3-hydroxy-2,6-dimethylphenyl)-2-(2-methylpyrimidin-5-yl)-1H-pyrrolo[2,3-b]pyridine-4-carbonitrile] was tested. Which IC50 did it give?
A: < 10 nM

Q: With Cc1ncc(-c2[nH]c3ncc(-c4c(C)ccc(O)c4C)c(C#N)c3c2C#CC(C)(C)O)cn1 [Example 110, (S)-5-(3-hydroxy-2,6-dimethylphenyl)-3-(3-hydroxy-3-methylbut-1-yn-1-yl)-2-(2-methylpyrimidin-5-yl)-1H-pyrrolo[2,3-b]pyridine-4-carbonitrile] as the molecule, how does the IC50 read?
A: < 10 nM

Q: How did the IC50 turn out when Cc1ncc(-c2[nH]c3ncc(-c4c(C)ccc(O)c4C)c(C#N)c3c2C#CC2(O)COC2)cn1 [Example 111, (S)-5-(3-hydroxy-2,6-dimethylphenyl)-3-((3-hydroxyoxetan-3-yl)ethynyl)-2-(2-methylpyrimidin-5-yl)-1H-pyrrolo[2,3-b]pyridine-4-carbonitrile] was run?
A: < 10 nM

Q: How did the IC50 turn out when Cc1ncc(-c2[nH]c3ncc(-c4c(C)ccc(O)c4C)c(C#N)c3c2C(F)(F)F)cn1 [Example 112, 5-(3-hydroxy-2,6-dimethylphenyl)-2-(2-methylpyrimidin-5-yl)-3-(trifluoromethyl)-1H-pyrrolo[2,3-b]pyridine-4-carbonitrile] was run?
A: 10 to 50 nM

Q: Cc1ncc(-c2[nH]c3ncc(-c4c(C)ccc(O)c4C)c(C#N)c3c2Sc2ccccc2)cn1 [Example 113, 5-(3-hydroxy-2,6-dimethylphenyl)-2-(2-methylpyrimidin-5-yl)-3-(phenylthio)-1H-pyrrolo[2,3-b]pyridine-4-carbonitrile] was tested. Which IC50 did it give?
A: 50 to 500 nM

Q: For Cc1ncc(-c2nc3cc(-c4c(C)ccc(O)c4C)cnc3[nH]2)cn1 [Example 114, 2,4-dimethyl-3-(2-(2-methylpyrimidin-5-yl)-3H-imidazo[4,5-b]pyridin-6-yl)phenol], which IC50 is on record?
A: 50 to 500 nM

Q: Cc1ccc(O)c(C)c1-c1cnc2[nH]c(-c3cnc(NC4CC4)s3)nc2c1 [Example 115, 3-(2-(2-(cyclopropylamino)thiazol-5-yl)-3H-imidazo[4,5-b]pyridin-6-yl)-2,4-dimethylphenol] was tested. Which IC50 did it give?
A: 50 to 500 nM

Q: For Cc1ccc(O)c(C)c1-c1cnc2[nH]c(-c3cnc(N)nc3)nc2c1C#N [Example 116, (S)-2-(2-aminopyrimidin-5-yl)-6-(3-hydroxy-2,6-dimethylphenyl)-3H-imidazo[4,5-b]pyridine-7-carbonitrile], which IC50 is on record?
A: < 10 nM

Q: Which IC50 does the source give for Cc1ccc(O)c(C)c1-c1cnc2[nH]c(-c3cnn(CC(C)(C)O)c3)cc2c1C#N [Example 117, (S)-5-(3-hydroxy-2,6-dimethylphenyl)-2-(1-(2-hydroxy-2-methylpropyl)-1H-pyrazol-4-yl)-1H-pyrrolo[2,3-b]pyridine-4-carbonitrile] here?
A: < 10 nM

Q: For Cc1ccc(O)c(C)c1-c1cnc2[nH]c(-c3cnn(C)c3)cc2c1C#N [Example 118, (S)-5-(3-hydroxy-2,6-dimethylphenyl)-2-(1-methyl-1H-pyrazol-4-yl)-1H-pyrrolo[2,3-b]pyridine-4-carbonitrile], which IC50 is on record?
A: < 10 nM

Q: For Cc1ccc(O)c(C)c1-c1cnc2[nH]c(-c3cnoc3)cc2c1C#N [Example 119, (S)-5-(3-hydroxy-2,6-dimethylphenyl)-2-(isoxazol-4-yl)-1H-pyrrolo[2,3-b]pyridine-4-carbonitrile], which IC50 is on record?
A: < 10 nM

Q: For Cc1ccc(O)c(C)c1-c1cnc2[nH]c(-c3cc[nH]n3)cc2c1C#N [Example 120, (S)-5-(3-hydroxy-2,6-dimethylphenyl)-2-(1H-pyrazol-3-yl)-1H-pyrrolo[2,3-b]pyridine-4-carbonitrile], which IC50 is on record?
A: < 10 nM

Q: Cc1ccc(O)c(C)c1-c1cnc2[nH]c(-n3cncn3)cc2c1C#N [Example 121, (S)-5-(3-hydroxy-2,6-dimethylphenyl)-2-(1H-1,2,4-triazol-1-yl)-1H-pyrrolo[2,3-b]pyridine-4-carbonitrile] was tested. Which IC50 did it give?
A: < 10 nM

Q: For Cc1ccc(O)c(C)c1-c1cnc2[nH]c(-n3ccnc3)cc2c1C#N [Example 122, (S)-5-(3-hydroxy-2,6-dimethylphenyl)-2-(1H-imidazol-1-yl)-1H-pyrrolo[2,3-b]pyridine-4-carbonitrile], which IC50 is on record?
A: < 10 nM

Q: Cc1ccc(O)c(C)c1-c1cnc2[nH]c(-c3cnc4[nH]ncc4c3)cc2c1C#N [Example 123, (S)-5-(3-hydroxy-2,6-dimethylphenyl)-2-(1H-pyrazolo[3,4-b]pyridin-5-yl)-1H-pyrrolo[2,3-b]pyridine-4-carbonitrile] was tested. Which IC50 did it give?
A: < 10 nM

Q: For Cc1ccc(O)c(C)c1-c1cnc2[nH]c(-c3cnc[nH]3)cc2c1C#N [Example 125, (S)-5-(3-hydroxy-2,6-dimethylphenyl)-2-(1H-imidazol-5-yl)-1H-pyrrolo[2,3-b]pyridine-4-carbonitrile], which IC50 is on record?
A: < 10 nM

Q: With Cc1ccc(O)c(C)c1-c1cnc2[nH]c(-c3cnc(N)s3)cc2c1C#N [Example 126, (S)-2-(2-aminothiazol-5-yl)-5-(3-hydroxy-2,6-dimethylphenyl)-1H-pyrrolo[2,3-b]pyridine-4-carbonitrile] as the molecule, how does the IC50 read?
A: < 10 nM

Q: Cc1ccc(O)c(C)c1-c1cnc2[nH]c(-c3cnc(N)nn3)cc2c1C#N [Example 127, (S)-2-(3-amino-1,2,4-triazin-6-yl)-5-(3-hydroxy-2,6-dimethylphenyl)-1H-pyrrolo[2,3-b]pyridine-4-carbonitrile] was tested. Which IC50 did it give?
A: < 10 nM

Q: With Cc1ccc(O)c(C)c1-c1cnc2[nH]c(-c3cnc(N4C[C@@H]5C[C@H]4CO5)nc3)cc2n1 [Example 128, 3-(6-(2-((1S,4S)-2-oxa-5-azabicyclo[2.2.1]heptan-5-yl)pyrimidin-5-yl)-5H-pyrrolo[2,3-b]pyrazin-2-yl)-2,4-dimethylphenol] as the molecule, how does the IC50 read?
A: < 10 nM

Q: With Cc1ccc(O)c(C)c1-c1cnc2[nH]c(-c3cnc(CN)nc3)cc2c1C#N [Example 129, (S)-2-(2-(aminomethyl)pyrimidin-5-yl)-5-(3-hydroxy-2,6-dimethylphenyl)-1H-pyrrolo[2,3-b]pyridine-4-carbonitrile] as the molecule, how does the IC50 read?
A: < 10 nM

Q: How did the IC50 turn out when Cc1ccc(O)c(C)c1-c1cnc2[nH]c(-c3cnc(N)c(C#N)c3)cc2c1C#N [Example 130, (S)-2-(6-amino-5-cyanopyridin-3-yl)-5-(3-hydroxy-2,6-dimethylphenyl)-1H-pyrrolo[2,3-b]pyridine-4-carbonitrile] was run?
A: < 10 nM

Q: For Cc1ccc(O)c(C)c1-c1cnc2[nH]c(-c3cnn(CCCO)c3)cc2c1C#N [Example 131, (S)-5-(3-hydroxy-2,6-dimethylphenyl)-2-(1-(3-hydroxypropyl)-1H-pyrazol-4-yl)-1H-pyrrolo[2,3-b]pyridine-4-carbonitrile], which IC50 is on record?
A: < 10 nM

Q: Which IC50 does the source give for Cc1ccc(O)c(C)c1-c1cnc2[nH]c(-n3cc(N)cn3)cc2c1C#N [Example 133, (S)-2-(4-amino-1H-pyrazol-1-yl)-5-(3-hydroxy-2,6-dimethylphenyl)-1H-pyrrolo[2,3-b]pyridine-4-carbonitrile] here?
A: < 10 nM

Q: How did the IC50 turn out when Cc1ccc(O)c(C)c1-c1cnc2[nH]c(-c3cn[nH]c(=O)c3)cc2c1C#N [Example 134] was run?
A: < 10 nM

Q: Cc1ccc(O)c(C)c1-c1cnc2[nH]c(-c3nnc[nH]3)cc2c1C#N [Example 135, 5-(3-hydroxy-2,6-dimethylphenyl)-2-(4H-1,2,4-triazol-3-yl)-1H-pyrrolo[2,3-b]pyridine-4-carbonitrile] was tested. Which IC50 did it give?
A: < 10 nM
